Results taken from patent US4614740A, “5H-2,3-benzodiazepine derivatives and pharmaceutical compositions containing the same” (Egis Gyogyszergyar, priority 1984, dated 1986).

Experiments:
[1] = anxiolytic effect, Vogel lick-conflict test; assay type: in vivo
Protocol: The anxiolytic effect was determined by the method of Vogel lick-conflict test/[Psychopharmacol. 21, 1 1979]. Tofizopam, 1-(3-chlorophenyl)-4-methyl-7,8-dimethoxy-5H-2,3-benzodiazepine and Chlorodiazepoxide 7-chloro-2-methylamino-5-phenyl-3H-1,4-benzodiazepine-4-oxide were used as reference agents.

[2] = test system: mice; test: narcosis potentiating effect (sodium hexobarbital narcosis); assay type: in vivo; conditions: Mus musculus, po, 50 mg/kg sodium hexobarbital i.v., limits between slashes, read-out: ED50 (dose increasing the narcosis period of half of the test animals to double)
Protocol: The narcosis potentiating effect was studied on mice. The compounds were administered in 3 or 4 oral doses to 15-20 animals per dose. Narcosis was induced with 50 mg/kg of sodium hexobarbital injected intravenously into the animals. The ED50 value is the dose increasing the narcosis period of half of the test animals to double.

[3] = test system: mice from the CFLP strain; test: spontaneous motor activity, motimeter of Animex type; assay type: in vivo; conditions: Mus musculus, po, 2 hours registration, Litchfield and Wilcoxon, limits between slashes, read-out: ED50 value (dose decreasing the spontaneous motor activity to half)
Protocol: The spontaneous motor activity was measured on a motimeter of Animex type. Groups of animal consisting of 3 mice from the CFLP strain weighing 20 to 23 g were starved for 24 hours and put to the apparatus. After a previous treatment of 10 minutes the amount of movements was registered continuously for 2 hours. The dose decreasing the spontaneous motor activity to half in comparison with the control group treated with vehiculum was determined.
The ED50 values were calculated by the method of Litchfield and Wilcoxon [J. Pharmacol. Exp. Ther. 96, 99 1949].

[4] = test system: mice; test: antiaggressive effect, "fighting behaviour" test; assay type: in vivo; conditions: for ED50: Mus musculus, po; for Relative activity: antiaggressive effect, p.o., tofizopam = 1.0
Text: The antiaggressive effect was studied on mice by the so-called "fighting behaviour" test [J. Pharm. Exp. Ther. 125, 28 (1959)]. Tofizopam and 1-(3-chlorophenyl)-4-methyl-7,8-dimethoxy-5H-2,3-benzodiazepine were used as reference agents.

[5] = test system: mice; test: hypnotic activity in mice (HD50); assay type: in vivo; conditions: for ED50: Mus musculus, mice
[6] = muscle relaxant activity, rotarod test; assay type: in vivo; conditions: ip, read-out: ED50, rotarod test
[7] = test system: rats; test: hypnotic activity in rats (HD50); assay type: in vivo; conditions: Rattus norvegicus, iv
[8] = muscle relaxant activity, "inclined screen" test; assay type: in vivo
[9] = tofizopam used in the therapy; cited from earlier work

Row | SMILES | ED50 [2] | ED50 [3] | ED50 [4] | Relative activity [4] | further results
1 | COc1cc2c(cc1OC)C(c1cccc(Cl)c1)=NN=C(C)C2 [1-(3-chlorophenyl)-4-methyl-7,8-dimethoxy-5H-2,3-benzodiazepine, reference compound] | 16 mg/kg | 6.2 mg/kg | 16 mg/kg | 4.6 | Number of electric shocks tolerated ([1]; 25 mg/kg i.p.): 9.9 ± 2.8; Number of electric shocks tolerated ([1]; 50 mg/kg i.p.): 19.0 ± 2.3
2 | CNC1=Nc2ccc(Cl)cc2C(c2ccccc2)=[N+]([O-])C1 [Chlorodiazepoxide, 7-chloro-2-methylamino-5-phenyl-3H-1,4-benzodiazepine-4-oxide, reference compound] | – | – | – | – | Number of electric shocks tolerated ([1]; 5 mg/kg i.p.): 9.7 ± 3.7; Number of electric shocks tolerated ([1]; 10 mg/kg i.p.): 27.5 ± 2.5
3 | COc1cc2c(cc1OC)C(c1ccc(N)cc1)=NN=C(C)C2 [Example 1, 1-(4-aminophenyl)-4-methyl-7,8-dimethoxy-5H-2,3-benzodiazepine] | 4.8 mg/kg | 3.2 mg/kg | 8.1 mg/kg | 7.9 | Number of electric shocks tolerated ([1]; 2.5 mg/kg i.p.): 4.1 ± 0.7; Number of electric shocks tolerated ([1]; 5 mg/kg i.p.): 13.9 ± 2.7; Number of electric shocks tolerated ([1]; 10 mg/kg i.p.): 19.7 ± 2.9
4 | COc1cc2c(cc1OC)C(c1cccc(N)c1)=NN=C(C)C2 [Example 2, 1-(3-Aminophenyl)-4-methyl-7,8-dimethoxy-5H-2,3-benzodiazepine] | 8.2 mg/kg | 1.3 mg/kg | 12.5 mg/kg | 5.1 | Number of electric shocks tolerated ([1]; 10 mg/kg i.p.): 4.2 ± 0.7; Number of electric shocks tolerated ([1]; 25 mg/kg i.p.): 15.1 ± 1.9
5 | CC1=NN=C(c2ccc(N)cc2)c2cc3c(cc2C1)OCO3 [Example 8, 1-(4-aminophenyl)-4-methyl-7,8-methylenedioxy-5H-2,3-benzodiazepine] | 7.4 mg/kg | 48 mg/kg | – | – | ED50 ([5]; ip): 70 mg/kg; ED50 ([5]; iv): 40 mg/kg; ED50 ([5]; po): 140 mg/kg; hypnotic activity (in words) ([5]; mice and rats): significant hypnotic activity; ED50 [6]: 24 mg/kg; ED50 [7]: 40 mg/kg; ED50 ([8]; ip, read-out: ED50, inclined screen test): 47 mg/kg; muscle relaxant activity (in words) ([8]; versus Zoxazolamine, inclined screen and rotarod): more potent than the reference substance Zoxazolamine
6 | COc1cc2c(cc1OC)C(c1ccc(N)c(C)c1)=NN=C(C)C2 [Example 10, 1-(3-Methyl-4-aminophenyl)-4-methyl-7,8-dimethoxy-5H-2,3-benzodiazepine] | 7.4 mg/kg | 4.4 mg/kg | 9.1 mg/kg | 7.0 | –
7 | COc1cc2c(cc1OC)C(C)C(C)=NN=C2c1ccc(N)cc1 (stereo not drawn) [Example 11, 1-(4-Aminophenyl)-4,5-dimethyl-7,8-dimethoxy-5H-2,3-benzodiazepine] | – | – | 16 mg/kg | 4.6 | –
8 | COc1cc2c(cc1OC)C(c1ccc(C)c(N)c1)=NN=C(C)C2 [Example 15, 1-(3-Amino-4-methylphenyl)-4-methyl-7,8-dimethoxy-5H-2,3-benzodiazepine] | 25 mg/kg | 9.7 mg/kg | 17 mg/kg | 3.8 | –
9 | COc1cc2c(cc1OC)C(c1ccc(N)c(Cl)c1)=NN=C(C)C2 [Example 18, 1-(3-Chloro-4-aminophenyl)-4-methyl-7,8-dimethoxy-5H-2,3-benzodiazepine] | 7.6 mg/kg | – | 7.9 mg/kg | 8.1 | Number of electric shocks tolerated ([1]; 2.5 mg/kg i.p.): 7.6 ± 3.0; Number of electric shocks tolerated ([1]; 5 mg/kg i.p.): 8.3 ± 1.0
10 | O=C1CN=C(c2ccccc2)c2cc([N+](=O)[O-])ccc2N1 [Nitrazepam, 7-nitro-5-phenyl-1,3-dihydro-2H-1,4-benzodiazepin-2-one, reference compound] | – | – | – | – | ED50 ([5]; ip): 150 mg/kg; ED50 ([5]; iv): 75 mg/kg; ED50 ([5]; po): 185 mg/kg; ED50 [7]: 96 mg/kg
11 | CCC1C(C)=NN=C(c2ccc(OC)c(OC)c2)c2cc(OC)c(OC)cc21 (stereo not drawn) [Tofizopam, 1-(3,4-dimethoxyphenyl)-4-methyl-5-ethyl-7,8-dimethoxy-5H-2,3-benzodiazepine, reference compound] | 38 mg/kg | 22 mg/kg | 74 mg/kg | 1.0 | Number of electric shocks tolerated ([1]; 25 mg/kg i.p.): 3.6 ± 0.4; Number of electric shocks tolerated ([1]; 50 mg/kg i.p.): 19.8 ± 3.7; further central nervous character (in words), reference drug [9]: in addition to the anxiolytic effect, a weak antidepressant activity
